Tests used:
[1] = Cytotoxicity against human RPMI8226 cells assessed as cell growth inhibition at 10 uM after 48 hrs by SRB assay relative to control; assay type: functional; settings: RPMI-8226, 48 h, read-out: GI
[2] = test system: SK-MEL-5; assay: Cytotoxicity against human SK-MEL-5 cells assessed as cell growth inhibition at 10 uM after 48 hrs by SRB assay relative to control; assay type: functional; settings: SK-MEL-5, 48 h, read-out: GI
[3] = Cytotoxicity against human SKOV3 cells assessed as cell growth inhibition at 10 uM after 48 hrs by SRB assay relative to control; assay type: functional; settings: SK-OV-3, 48 h, read-out: GI
[4] = test system: NCI-H23; assay: Cytotoxicity against human NCI-H23 cells assessed as cell growth inhibition at 10 uM after 48 hrs by SRB assay relative to control; assay type: functional; settings: NCI-H23, 48 h, read-out: GI
[5] = Cytotoxicity against human SNB19 cells assessed as cell growth inhibition at 10 uM after 48 hrs by SRB assay relative to control; assay type: functional; settings: SNB-19, 48 h, read-out: GI
[6] = Cytotoxicity against human OVCAR8 cells assessed as cell growth inhibition at 10 uM after 48 hrs by SRB assay relative to control; assay type: functional; settings: OVCAR-8, 48 h, read-out: GI
[7] = Cytotoxicity against human COLO205 cells assessed as cell growth inhibition at 10 uM after 48 hrs by SRB assay relative to control; assay type: functional; settings: COLO 205, 48 h, read-out: GI
[8] = Cytotoxicity against human SW620 cells assessed as cell growth inhibition at 10 uM after 48 hrs by SRB assay relative to control; assay type: functional; settings: SW-620, 48 h, read-out: GI
[9] = test system: NCI-H322M; assay: Cytotoxicity against human NCI-H322M cells assessed as cell growth inhibition at 10 uM after 48 hrs by SRB assay relative to control; assay type: functional; settings: read-out: GI
[10] = Cytotoxicity against human Hs 578T cells assessed as cell growth inhibition at 10 uM after 48 hrs by SRB assay relative to control; assay type: functional; settings: read-out: GI
[11] = test system: SN12C; assay: Cytotoxicity against human SN12C cells assessed as cell growth inhibition at 10 uM after 48 hrs by SRB assay relative to control; assay type: functional; settings: read-out: GI
[12] = test system: U-251; assay: Cytotoxicity against human U251 cells assessed as cell growth inhibition at 10 uM after 48 hrs by SRB assay relative to control; assay type: functional; settings: U-251, 48 h, read-out: GI
[13] = Cytotoxicity against human RXF393 cells assessed as cell growth inhibition at 10 uM after 48 hrs by SRB assay relative to control; assay type: functional; settings: RXF 393, 48 h, read-out: GI
[14] = test system: HT-29; assay: Cytotoxicity against human HT-29 cells assessed as cell growth inhibition at 10 uM after 48 hrs by SRB assay relative to control; assay type: functional; settings: HT-29, 48 h, read-out: GI
[15] = Cytotoxicity against human HOP92 cells assessed as cell growth inhibition at 10 uM after 48 hrs by SRB assay relative to control; assay type: functional; settings: HOP-92, 48 h, read-out: GI
[16] = test system: ACHN; assay: Cytotoxicity against human ACHN cells assessed as cell growth inhibition at 10 uM after 48 hrs by SRB assay relative to control; assay type: functional; settings: read-out: GI
[17] = Cytotoxicity against human HCC2998 cells assessed as cell growth inhibition at 10 uM after 48 hrs by SRB assay relative to control; assay type: functional; settings: HCC 2998, 48 h, read-out: GI
[18] = Cytotoxicity against human SF268 cells assessed as cell growth inhibition at 10 uM after 48 hrs by SRB assay relative to control; assay type: functional; settings: SF-268, 48 h, read-out: GI
[19] = test system: MDA-MB-468; assay: Cytotoxicity against human MDA-MB-468 cells assessed as cell growth inhibition at 10 uM after 48 hrs by SRB assay relative to control; assay type: functional; settings: MDA-MB-468, 48 h, read-out: GI
[20] = test system: 786-0; assay: Cytotoxicity against human 786-0 cells assessed as cell growth inhibition at 10 uM after 48 hrs by SRB assay relative to control; assay type: functional; settings: 786-0, 48 h, read-out: GI
[21] = Cytotoxicity against human SF539 cells assessed as cell growth inhibition at 10 uM after 48 hrs by SRB assay relative to control; assay type: functional; settings: SF-539, 48 h, read-out: GI
[22] = Cytotoxicity against human UACC257 cells assessed as cell growth inhibition at 10 uM after 48 hrs by SRB assay relative to control; assay type: functional; settings: UACC-257, 48 h, read-out: GI
[23] = biological target: DNA-dependent protein kinase catalytic subunit (Homo sapiens, UniProt P78527); assay: Inhibition of human DNA-PK using EPPLSQEAFADLWKK as substrate by HTRF assay
Sequence of DNA-dependent protein kinase catalytic subunit (P78527 whole entry): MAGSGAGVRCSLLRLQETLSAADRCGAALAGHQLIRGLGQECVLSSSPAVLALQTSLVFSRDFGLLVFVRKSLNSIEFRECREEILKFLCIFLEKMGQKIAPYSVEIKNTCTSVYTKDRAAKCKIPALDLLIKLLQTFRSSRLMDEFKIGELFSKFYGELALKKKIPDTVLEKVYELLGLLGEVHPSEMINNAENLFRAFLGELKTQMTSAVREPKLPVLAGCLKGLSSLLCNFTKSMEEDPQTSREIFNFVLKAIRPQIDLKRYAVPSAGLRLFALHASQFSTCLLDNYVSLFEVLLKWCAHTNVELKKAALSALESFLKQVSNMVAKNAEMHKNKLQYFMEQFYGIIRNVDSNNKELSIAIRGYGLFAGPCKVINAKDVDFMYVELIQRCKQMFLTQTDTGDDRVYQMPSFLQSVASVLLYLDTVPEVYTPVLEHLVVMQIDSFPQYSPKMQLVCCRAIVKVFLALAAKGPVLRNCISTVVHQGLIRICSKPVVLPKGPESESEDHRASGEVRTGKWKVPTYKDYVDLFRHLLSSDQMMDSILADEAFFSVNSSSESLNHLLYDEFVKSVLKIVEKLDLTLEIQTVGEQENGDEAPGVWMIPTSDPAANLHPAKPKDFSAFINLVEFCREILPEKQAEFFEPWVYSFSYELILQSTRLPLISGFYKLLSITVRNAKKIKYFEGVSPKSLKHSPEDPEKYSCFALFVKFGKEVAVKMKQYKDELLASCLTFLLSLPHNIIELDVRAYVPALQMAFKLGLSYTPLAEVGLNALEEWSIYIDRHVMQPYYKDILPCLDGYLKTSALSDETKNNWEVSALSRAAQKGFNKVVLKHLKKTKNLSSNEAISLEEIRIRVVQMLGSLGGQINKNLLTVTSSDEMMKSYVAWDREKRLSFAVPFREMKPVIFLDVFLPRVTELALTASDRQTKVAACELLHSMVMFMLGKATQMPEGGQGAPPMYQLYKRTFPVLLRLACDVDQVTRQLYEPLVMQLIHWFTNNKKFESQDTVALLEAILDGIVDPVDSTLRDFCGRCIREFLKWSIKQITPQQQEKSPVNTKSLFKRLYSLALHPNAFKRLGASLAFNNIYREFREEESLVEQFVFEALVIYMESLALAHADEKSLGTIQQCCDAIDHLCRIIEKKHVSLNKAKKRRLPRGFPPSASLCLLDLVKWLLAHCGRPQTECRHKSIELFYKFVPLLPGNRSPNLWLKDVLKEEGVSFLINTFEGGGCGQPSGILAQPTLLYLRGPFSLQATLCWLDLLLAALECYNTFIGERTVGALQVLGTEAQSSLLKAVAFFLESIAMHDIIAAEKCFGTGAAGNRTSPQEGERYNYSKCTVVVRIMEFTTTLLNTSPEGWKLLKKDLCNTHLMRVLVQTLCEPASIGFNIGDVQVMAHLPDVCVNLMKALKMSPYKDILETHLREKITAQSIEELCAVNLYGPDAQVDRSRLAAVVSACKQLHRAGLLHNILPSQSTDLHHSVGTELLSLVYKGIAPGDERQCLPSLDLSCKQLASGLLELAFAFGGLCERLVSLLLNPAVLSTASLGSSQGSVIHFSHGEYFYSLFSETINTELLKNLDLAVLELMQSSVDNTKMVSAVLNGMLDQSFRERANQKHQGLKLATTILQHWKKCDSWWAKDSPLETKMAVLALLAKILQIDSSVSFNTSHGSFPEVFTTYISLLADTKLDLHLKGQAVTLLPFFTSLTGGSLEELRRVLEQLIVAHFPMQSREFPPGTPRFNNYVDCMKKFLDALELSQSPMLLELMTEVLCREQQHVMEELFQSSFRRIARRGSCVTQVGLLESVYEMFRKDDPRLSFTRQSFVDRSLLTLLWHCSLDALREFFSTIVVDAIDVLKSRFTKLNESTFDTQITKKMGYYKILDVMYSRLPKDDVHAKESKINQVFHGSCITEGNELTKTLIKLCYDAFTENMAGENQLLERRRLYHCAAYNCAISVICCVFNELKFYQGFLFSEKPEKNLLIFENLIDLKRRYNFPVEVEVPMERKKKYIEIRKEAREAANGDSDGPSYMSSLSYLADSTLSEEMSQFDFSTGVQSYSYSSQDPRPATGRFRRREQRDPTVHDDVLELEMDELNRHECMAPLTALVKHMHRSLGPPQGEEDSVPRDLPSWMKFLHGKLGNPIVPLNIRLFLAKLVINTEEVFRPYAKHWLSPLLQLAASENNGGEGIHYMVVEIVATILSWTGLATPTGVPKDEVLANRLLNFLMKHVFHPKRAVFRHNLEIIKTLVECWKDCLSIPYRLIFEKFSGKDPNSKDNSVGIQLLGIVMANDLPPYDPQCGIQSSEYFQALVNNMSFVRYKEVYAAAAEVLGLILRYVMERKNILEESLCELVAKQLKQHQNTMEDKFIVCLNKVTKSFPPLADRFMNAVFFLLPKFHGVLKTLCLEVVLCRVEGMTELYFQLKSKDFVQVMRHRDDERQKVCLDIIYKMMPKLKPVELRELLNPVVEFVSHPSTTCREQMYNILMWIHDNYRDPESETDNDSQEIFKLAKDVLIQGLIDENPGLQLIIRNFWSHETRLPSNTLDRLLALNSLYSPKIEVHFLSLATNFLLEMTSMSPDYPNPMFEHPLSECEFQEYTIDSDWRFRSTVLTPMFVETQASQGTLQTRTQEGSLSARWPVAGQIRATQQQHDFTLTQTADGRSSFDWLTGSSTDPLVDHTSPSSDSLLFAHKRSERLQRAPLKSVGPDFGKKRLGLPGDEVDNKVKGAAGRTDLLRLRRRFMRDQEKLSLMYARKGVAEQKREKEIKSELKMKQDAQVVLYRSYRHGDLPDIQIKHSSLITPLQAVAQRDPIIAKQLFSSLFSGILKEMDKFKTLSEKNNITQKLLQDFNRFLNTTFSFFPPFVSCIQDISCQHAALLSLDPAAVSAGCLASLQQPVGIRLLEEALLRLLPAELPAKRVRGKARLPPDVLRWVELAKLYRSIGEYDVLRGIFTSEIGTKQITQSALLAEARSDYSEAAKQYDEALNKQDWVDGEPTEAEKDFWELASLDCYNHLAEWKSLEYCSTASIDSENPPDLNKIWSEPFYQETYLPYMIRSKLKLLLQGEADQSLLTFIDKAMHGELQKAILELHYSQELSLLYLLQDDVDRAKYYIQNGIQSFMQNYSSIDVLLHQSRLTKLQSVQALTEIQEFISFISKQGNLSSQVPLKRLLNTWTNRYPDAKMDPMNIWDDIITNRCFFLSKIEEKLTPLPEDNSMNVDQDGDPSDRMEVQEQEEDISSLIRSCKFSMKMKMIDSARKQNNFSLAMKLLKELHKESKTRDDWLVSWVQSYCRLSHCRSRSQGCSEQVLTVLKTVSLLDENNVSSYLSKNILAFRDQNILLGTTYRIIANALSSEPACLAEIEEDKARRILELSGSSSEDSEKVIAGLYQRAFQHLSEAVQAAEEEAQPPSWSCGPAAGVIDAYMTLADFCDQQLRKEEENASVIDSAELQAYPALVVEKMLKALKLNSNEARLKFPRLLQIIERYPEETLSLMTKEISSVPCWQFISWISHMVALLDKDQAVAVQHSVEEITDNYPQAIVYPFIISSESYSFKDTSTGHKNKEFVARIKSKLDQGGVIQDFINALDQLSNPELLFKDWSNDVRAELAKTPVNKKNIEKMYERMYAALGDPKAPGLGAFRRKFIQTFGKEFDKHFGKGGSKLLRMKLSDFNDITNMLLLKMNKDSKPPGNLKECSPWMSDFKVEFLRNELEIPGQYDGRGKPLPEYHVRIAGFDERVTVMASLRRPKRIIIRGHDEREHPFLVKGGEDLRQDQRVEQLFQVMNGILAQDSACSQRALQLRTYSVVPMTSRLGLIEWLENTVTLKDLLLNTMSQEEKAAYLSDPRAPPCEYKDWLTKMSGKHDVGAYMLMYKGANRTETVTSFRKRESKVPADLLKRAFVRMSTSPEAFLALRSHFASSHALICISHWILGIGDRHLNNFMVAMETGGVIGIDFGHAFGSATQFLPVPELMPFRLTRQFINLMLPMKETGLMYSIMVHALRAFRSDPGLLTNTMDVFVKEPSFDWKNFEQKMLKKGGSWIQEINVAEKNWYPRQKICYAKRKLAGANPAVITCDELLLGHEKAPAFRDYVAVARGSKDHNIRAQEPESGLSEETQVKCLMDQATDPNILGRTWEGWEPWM

[24] = test system: NCI-H522; assay: Cytotoxicity against human NCI-H522 cells assessed as cell growth inhibition at 10 uM after 48 hrs by SRB assay relative to control; assay type: functional; settings: NCI-H522, 48 h, read-out: GI
[25] = Cytotoxicity against human OVCAR3 cells assessed as cell growth inhibition at 10 uM after 48 hrs by SRB assay relative to control; assay type: functional; settings: OVCAR-3, 48 h, read-out: GI
[26] = Cytotoxicity against human BT549 cells assessed as cell growth inhibition at 10 uM after 48 hrs by SRB assay relative to control; assay type: functional; settings: BT-549, 48 h, read-out: GI
[27] = test system: SK-MEL-28; assay: Cytotoxicity against human SK-MEL-28 cells assessed as cell growth inhibition at 10 uM after 48 hrs by SRB assay relative to control; assay type: functional; settings: SK-MEL-28, 48 h, read-out: GI
[28] = Cytotoxicity against human HL-60(TB) cells assessed as cell growth inhibition at 10 uM after 48 hrs by SRB assay relative to control; assay type: functional; settings: HL-60, 48 h, read-out: GI
[29] = test system: Malme-3M; assay: Cytotoxicity against human MALME-3M cells assessed as cell growth inhibition at 10 uM after 48 hrs by SRB assay relative to control; assay type: functional; settings: read-out: GI
[30] = Cytotoxicity against human NCI-ADR-RES cells assessed as cell growth inhibition at 10 uM after 48 hrs by SRB assay relative to control; assay type: functional; settings: read-out: GI
[31] = test system: MDA-MB-435; assay: Cytotoxicity against human MDA-MB-435 cells assessed as cell growth inhibition at 10 uM after 48 hrs by SRB assay relative to control; assay type: functional; settings: MDA-MB-435, 48 h, read-out: GI
[32] = biological target: Phosphatidylinositol 4,5-bisphosphate 3-kinase catalytic subunit gamma isoform (Homo sapiens) (UniProt P48736); assay: Inhibition of PI3Kgamma (unknown origin) at 10 uM incubated for 60 mins by kinase-glo luminescence assay
[33] = Cytotoxicity against human MOLT4 cells assessed as cell growth inhibition at 10 uM after 48 hrs by SRB assay relative to control; assay type: functional; settings: MOLT-4, 48 h, read-out: GI
[34] = test system: SR; assay: Cytotoxicity against human SR cells assessed as cell growth inhibition at 10 uM after 48 hrs by SRB assay relative to control; assay type: functional; settings: read-out: GI
[35] = Cytotoxicity against human OVCAR4 cells assessed as cell growth inhibition at 10 uM after 48 hrs by SRB assay relative to control; assay type: functional; settings: OVCAR-4, 48 h, read-out: GI

| SMILES | inhibition of growth at 10 µM [1] [%] | inhibition of growth at 10 µM [2] [%] | inhibition of growth at 10 µM [3] [%] | inhibition of growth at 10 µM [4] [%] | inhibition of growth at 10 µM [5] [%] | inhibition of growth at 10 µM [6] [%] | inhibition of growth at 10 µM [7] [%] | inhibition of growth at 10 µM [8] [%] | inhibition of growth at 10 µM [9] [%] | inhibition of growth at 10 µM [10] [%] | inhibition of growth at 10 µM [11] [%] | inhibition of growth at 10 µM [12] [%] | inhibition of growth at 10 µM [13] [%] | inhibition of growth at 10 µM [14] [%] | inhibition of growth at 10 µM [15] [%] | inhibition of growth at 10 µM [16] [%] | inhibition of growth at 10 µM [17] [%] | inhibition of growth at 10 µM [18] [%] | inhibition of growth at 10 µM [19] [%] | inhibition of growth at 10 µM [20] [%] | also measured |
| --- | --- | --- | --- | --- | --- | --- | --- | --- | --- | --- | --- | --- | --- | --- | --- | --- | --- | --- | --- | --- | --- |
| COc1ccc(-c2cccc3c(=O)nc(N4CCOCC4)oc23)cc1 | -0.31 | 9.19 | -6.51 | 14.3 | -0.25 | 4.78 | -2.6 | 0.87 | 3.11 | 11.1 | 8.75 | 0.83 | 7.94 | 10.8 | 34.8 | 6.19 | -5.73 | 6.91 | 6.21 | 9.72 | inhibition of growth at 10 µM [21]: -2.27%; inhibition of growth at 10 µM [22]: 4.28%; IC50 [23]: 9.94 µM; inhibition of growth at 10 µM [24]: 12.8%; inhibition of growth at 10 µM [25]: 5.94%; inhibition of growth at 10 µM [26]: 4.99%; inhibition of growth at 10 µM [27]: 2.38%; inhibition of growth at 10 µM [28]: 7.35%; inhibition of growth at 10 µM [29]: -4.08%; inhibition of growth at 10 µM [30]: 9.12%; inhibition of growth at 10 µM [31]: 1.03%; inhibition [32]: 7%; inhibition of growth at 10 µM [33]: 1.48%; inhibition of growth at 10 µM [34]: 26.1%; inhibition of growth at 10 µM [35]: 2.85% |
| O=c1nc(N2CCOCC2)oc2c(-c3ccsc3)cccc12 | 3.35 | 13.4 | -0.06 | 15.4 | -3.77 | 3.77 | -5.35 | 2.66 | 16 | 9.35 | 9.14 | 8.75 | 14.4 | 12.7 | 40.7 | 2.44 | -2.71 | 13.1 | 15 | 11.9 | inhibition of growth at 10 µM [21]: -6.9%; inhibition of growth at 10 µM [22]: 1.24%; IC50 [23]: 9.8 µM; inhibition of growth at 10 µM [24]: 0.83%; inhibition of growth at 10 µM [25]: 11.8%; inhibition of growth at 10 µM [26]: 4.54%; inhibition of growth at 10 µM [27]: 8.4%; inhibition of growth at 10 µM [28]: 4.04%; inhibition of growth at 10 µM [29]: 9.75%; inhibition of growth at 10 µM [30]: 13.3%; inhibition of growth at 10 µM [31]: 3.77%; inhibition [32]: 29%; inhibition of growth at 10 µM [33]: 9.6%; inhibition of growth at 10 µM [34]: 21.9%; inhibition of growth at 10 µM [35]: 3.41% |
| O=c1nc(N2CCOCC2)oc2c(-c3cccc4c3oc3ccccc34)cccc12 | 1.19 | 13.7 | -14.9 | 11.1 | 4.3 | 3.88 | -2.34 | 0.96 | 22.3 | 14.6 | 5.07 | 7.66 | 15 | 1.56 | 45.6 | 6.98 | -4.36 | 9.26 | 18.7 | 21.8 | inhibition of growth at 10 µM [21]: 3.81%; inhibition of growth at 10 µM [22]: -3.42%; IC50 [23]: 0.269 µM; inhibition of growth at 10 µM [24]: 23%; inhibition of growth at 10 µM [25]: 2.85%; inhibition of growth at 10 µM [26]: 2.25%; inhibition of growth at 10 µM [27]: 2.4%; inhibition of growth at 10 µM [28]: 5.92%; inhibition of growth at 10 µM [29]: 19.7%; inhibition of growth at 10 µM [30]: 12.8%; inhibition of growth at 10 µM [31]: 17.1%; inhibition [32]: 32%; inhibition of growth at 10 µM [33]: 4.2%; inhibition of growth at 10 µM [34]: 34.7%; inhibition of growth at 10 µM [35]: -1.43% |
